Results as given in patent US7442833B2, “Triphenylethylene compounds as selective estrogen receptor modulators” (SmithKline Beecham Corporation, priority 2003, dated 2008).
Converted amounts (≈) assume the structure as drawn. “And” between values parts separate entries of the source, which are not always exact repeats. Identical values can stand only once. Counter-ions that a name gives are not always drawn.

Key:
[1] = Rat oral pharmacokinetics: bioavailability of compound 1; type: in vivo, female CD (Charles River Sprague Dawley) rats; settings: for Bioavailability of 1 in Rat (% F): Table I; for Bioavailability of 1 in Rat: Table II
Protocol: In order to study the pharmacokinetic behavior of the prodrugs of this invention, a single oral dose of a series of prodrugs as well as compound 1 was administered to female CD (Charles River Sprague Dawley) rats. Rats received each compound by oral gavage at a dose of 10 mg/kg. […]

[2] = Equilibrium solubility in fasted state simulated intestinal fluid (SIF); type: physicochemical; settings: fassif, thermodynamic from solid, pH = 6.8
Description: Traditionally, prodrugs have often been used to increase the bioavailability of a drug via improvement of prodrug solubility by attaching a water-soluble moiety (the “progroup”) to a poorly water soluble parent drug (D. Fleisher, Adv. Drug Del. Rev. (1996) 19, 115-130, incorporated herein by reference).

[3] = target: estrogen receptor subtype alpha (Homo sapiens, UniProt P03372); settings: relative to estradiol; reported by Weatherman, Chem. and Biol. (2001) 8, 427-436; cited from earlier work
Sequence of estrogen receptor subtype alpha (P03372 whole entry): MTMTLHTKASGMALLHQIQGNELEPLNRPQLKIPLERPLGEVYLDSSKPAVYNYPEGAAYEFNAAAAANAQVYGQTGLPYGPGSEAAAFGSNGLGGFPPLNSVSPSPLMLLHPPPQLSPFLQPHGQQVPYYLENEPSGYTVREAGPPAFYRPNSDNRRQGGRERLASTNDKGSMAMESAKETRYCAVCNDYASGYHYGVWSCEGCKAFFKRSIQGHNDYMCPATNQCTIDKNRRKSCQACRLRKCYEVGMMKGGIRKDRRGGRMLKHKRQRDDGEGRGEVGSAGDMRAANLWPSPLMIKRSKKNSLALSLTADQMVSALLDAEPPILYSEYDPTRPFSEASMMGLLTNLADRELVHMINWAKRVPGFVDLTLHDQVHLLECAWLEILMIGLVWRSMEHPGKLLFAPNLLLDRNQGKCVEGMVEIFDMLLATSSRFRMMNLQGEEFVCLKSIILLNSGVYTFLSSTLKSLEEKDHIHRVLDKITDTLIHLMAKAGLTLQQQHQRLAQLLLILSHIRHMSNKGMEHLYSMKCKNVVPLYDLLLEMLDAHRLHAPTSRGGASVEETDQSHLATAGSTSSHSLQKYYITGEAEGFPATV

[4] = target: estrogen receptor subtype beta (Homo sapiens, UniProt Q92731); settings: relative to estradiol; reported by Weatherman, Chem. and Biol. (2001) 8, 427-436; cited from earlier work
Sequence of estrogen receptor subtype beta (Q92731 whole entry): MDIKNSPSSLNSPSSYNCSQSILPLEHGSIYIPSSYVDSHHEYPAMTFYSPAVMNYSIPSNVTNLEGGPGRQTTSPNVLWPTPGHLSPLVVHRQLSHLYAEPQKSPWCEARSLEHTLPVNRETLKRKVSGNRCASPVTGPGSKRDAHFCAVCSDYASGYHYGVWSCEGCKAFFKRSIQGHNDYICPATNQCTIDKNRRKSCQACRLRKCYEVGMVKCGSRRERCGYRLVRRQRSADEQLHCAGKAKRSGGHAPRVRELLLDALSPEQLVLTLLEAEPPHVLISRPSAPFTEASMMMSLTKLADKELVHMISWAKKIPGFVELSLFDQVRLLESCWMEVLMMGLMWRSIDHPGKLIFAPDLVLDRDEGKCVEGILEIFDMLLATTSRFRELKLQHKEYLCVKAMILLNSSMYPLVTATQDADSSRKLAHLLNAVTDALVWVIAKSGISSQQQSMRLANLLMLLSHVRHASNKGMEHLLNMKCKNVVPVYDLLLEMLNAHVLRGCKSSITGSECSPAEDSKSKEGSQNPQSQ

[5] = single oral gavage 10 mg/kg, suspension in aqueous 0.5% HPMC and 0.1% polysorbate 80 (Tween 80)
[6] = oral, suspension in aqueous 0.5% HPMC and 0.1% polysorbate 80 (Tween 80)

| SMILES | Bioavailability of 1 in Rat (% F) [1, 5] [% F] | melting point | also measured |
| --- | --- | --- | --- |
| CC/C(=C(\c1ccc(/C=C/C(=O)O)cc1)c1ccc(OC(=O)c2ccccc2)cc1)c1ccccc1 [Compound 18, (2E)-3-(4-{(1Z)-1-[4-(benzoyloxy)phenyl]-2-phenylbut-1-enyl}phenyl)prop-2-enoic acid] | 12.3 |  |  |
| CC/C(=C(\c1ccc(/C=C/C(=O)O)cc1)c1ccc(OC(=O)c2ccco2)cc1)c1ccccc1 [Compound 22, (2E)-3-(4-{(1Z)-1-[4-(2-Furoyloxy)phenyl]-2-phenyl-1-butenyl}phenyl)-2-propenoic acid] | 16.9 | 170 to 172 °C |  |
| CC/C(=C(\c1ccc(/C=C/C(=O)O)cc1)c1ccc(OC(=O)CN2CCCCC2)cc1)c1ccccc1 [Compound 33, (2E)-3-[4-((1Z)-2-phenyl-1-{4-[(piperidin-1-ylacetyl)oxy]phenyl}but-1-enyl)phenyl]prop-2-enoic acid] | 13.9 |  |  |
| CC/C(=C(/c1ccc(O)cc1)c1ccc(/C=C/C(=O)O)cc1)c1ccccc1 [Compound 1, (2E)-3-{4-[(1Z)-1-(4-Hydroxyphenyl)-2-phenylbut-1-enyl]phenyl}prop-2-enoic acid] | 5.7 |  | Bioavailability of 1 in Rat (% F) ([1]; oral, solution in aqueous 20% hydroxypropoylcyclodextrin): 29.0 % F; Bioavailability of 1 in Rat [1, 6]: 5.7 % F; solubility thermodynamic [2]: 23 µg/mL (≈ 62.1 µM); binding affinity to estrogen receptor subtype alpha, % that of estradiol [3]: 2%; binding affinity to estrogen receptor subtype beta, % that of estradiol [4]: 1% |
| CC/C(=C(\c1ccc(/C=C/C(=O)O)cc1)c1ccc(OC(=O)C2CCCCC2)cc1)c1ccccc1 [Compound 29, (2E)-3-[4-((1Z)-1-{4-[(cyclohexylcarbonyl)oxy]phenyl}-2-phenylbut-1-enyl)phenyl]prop-2-enoic acid] | 3.3 |  |  |
| CC/C(=C(\c1ccc(/C=C/C(=O)O)cc1)c1ccc(OC(=O)CN2CCOCC2)cc1)c1ccccc1 [Compound 31, (2E)-3-[4-((1Z)-1-{4-[(morpholin-4-ylacetyl)oxy]phenyl}-2-phenylbut-1-enyl)phenyl]prop-2-enoic acid] | 21.3 |  |  |
| CCOC(=O)Oc1ccc(/C(=C(/CC)c2ccccc2)c2ccc(/C=C/C(=O)O)cc2)cc1 [Compound 37, (2E)-3-[4-((1Z)-1-{4-[(Ethoxycarbonyl)oxy]phenyl}-2-phenyl-1-butenyl)phenyl]-2-propenoic acid] | 43.2 | 135 to 136 °C |  |
| CC/C(=C(\c1ccc(/C=C/C(=O)O)cc1)c1ccc(OC(=O)CN(C)C)cc1)c1ccccc1 [Compound 23, (2E)-3-[4-((1Z)-1-{4-[(N,N-dimethylglycyl)oxy]phenyl}-2-phenylbut-1-enyl)phenyl]prop-2-enoic acid] | 38.3 |  | Bioavailability of 1 in Rat [1, 6]: 38.3 % F; solubility thermodynamic [2]: 15 µg/mL (≈ 32.9 µM) |
| CCCC(=O)Oc1ccc(/C(=C(/CC)c2ccccc2)c2ccc(/C=C/C(=O)O)cc2)cc1 [Compound 21, (2E)-3-(4-{(1Z)-1-[4-(butyryloxy)phenyl]-2-phenylbut-1-enyl}phenyl)prop-2-enoic acid] | 18.2 |  | Bioavailability of 1 in Rat [1, 6]: 18.2 % F; solubility thermodynamic [2]: 21 µg/mL (≈ 47.7 µM) |
| CC/C(=C(\c1ccc(/C=C/C(=O)O)cc1)c1ccc(OP(=O)(O)O)cc1)c1ccccc1 [Compound 35, (2E)-3-(4-{(1Z)-2-Phenyl-1-[4-(phosphonooxy)phenyl]-1-butenyl}phenyl)-2-propenoic acid] | 37.0 | 181 to 183 °C | Bioavailability of 1 in Rat [1, 6]: 37.0 % F; solubility thermodynamic [2]: > 1000 µg/mL |
| CC/C(=C(\c1ccc(/C=C/C(=O)O)cc1)c1ccc(OC(=O)CN(C)C)cc1)c1ccccc1 (as salt: salt) [Compound 23, (2E)-3-[4-((1Z)-1-{4-[(N,N-dimethylglycyl)oxy]phenyl}-2-phenylbut-1-enyl)phenyl]prop-2-enoic acid] |  | 206 to 208 °C |  |
| CC/C(=C(\c1ccc(/C=C/C(=O)O)cc1)c1ccc(OC(=O)c2cccs2)cc1)c1ccccc1 (as salt: salt) [Compound 25, (2E)-3-[4-((1Z)-2-phenyl-1-{4-[(thien-2-ylcarbonyl)oxy]phenyl}but-1-enyl)phenyl]prop-2-enoic acid] |  | 175 to 176 °C |  |
| CC/C(=C(\c1ccc(/C=C/C(=O)O)cc1)c1ccc(OC(=O)CN2CCN(C)CC2)cc1)c1ccccc1 [Compound 34, (2E)-3-{4-[(1Z)-1-(4-{[(4-methylpiperazin-1-yl)acetyl]oxy}phenyl)-2-phenylbut-1-enyl]phenyl}prop-2-enoic acid] | 13.4 |  |  |
| CC/C(=C(\c1ccc(/C=C/C(=O)O)cc1)c1ccc(OC(=O)CCOC)cc1)c1ccccc1 [Compound 26] | 52.4 | 190 to 191 °C |  |
| CCC(=O)Oc1ccc(/C(=C(/CC)c2ccccc2)c2ccc(/C=C/C(=O)O)cc2)cc1 [Compound 7, (2E)-3-(4-{(1Z)-2-phenyl-1-[4-(propionyloxy)phenyl]but-1-enyl}phenyl)prop-2-enoic acid] | 86.6 | 155 to 157 °C and 158 to 160 °C | Bioavailability of 1 in Rat [1, 6]: 86.6 % F; solubility thermodynamic [2]: 61 µg/mL (≈ 143 µM) |
| CC/C(=C(\c1ccc(/C=C/C(=O)O)cc1)c1ccc(OC(=O)c2ccno2)cc1)c1ccccc1 [Compound 24, (2E)-3-[4-((1Z)-1-{4-[(5-Isoxazolylcarbonyl)oxy]phenyl}-2-phenyl-1-butenyl)phenyl]-2-propenoic acid] | 43.2 | 141 to 142 °C |  |
| CC/C(=C(\c1ccc(/C=C/C(=O)O)cc1)c1ccc(OC(=O)C(C)(C)C)cc1)c1ccccc1 [Compound 28, (2E)-3-[4-((1Z)-1-{4-[(2,2-dimethylpropanoyl)oxy]phenyl}-2-phenylbut-1-enyl)phenyl]prop-2-enoic acid] | 3.5 |  |  |
| CC/C(=C(\c1ccc(/C=C/C(=O)O)cc1)c1ccc(OC(=O)OC)cc1)c1ccccc1 [Compound 40, (2E)-3-[4-((1Z)-1-{4-[(Methoxycarbonyl)oxy]phenyl}-2-phenyl-1-butenyl)phenyl]-2-propenoic acid] | 21.9 | 140 to 142 °C |  |
| CC/C(=C(\c1ccc(/C=C/C(=O)O)cc1)c1ccc(OC(C)=O)cc1)c1ccccc1 [Compound 20, (2E)-3-(4-{(1Z)-1-[4-(acetyloxy)phenyl]-2-phenylbut-1-enyl}phenyl)prop-2-enoic acid] | 13.5 |  | Bioavailability of 1 in Rat [1, 6]: 13.5 % F; solubility thermodynamic [2]: 129 µg/mL (≈ 313 µM) |
| CC/C(=C(\c1ccc(/C=C/C(=O)O)cc1)c1ccc(OC(=O)c2cccs2)cc1)c1ccccc1 [Compound 25, (2E)-3-[4-((1Z)-2-phenyl-1-{4-[(thien-2-ylcarbonyl)oxy]phenyl}but-1-enyl)phenyl]prop-2-enoic acid] | 50.9 |  |  |
| CC/C(=C(\c1ccc(/C=C/C(=O)O)cc1)c1ccc(OC(=O)CCC(F)(F)F)cc1)c1ccccc1 [Compound 27, (2E)-3-[4-((1Z)-2-phenyl-1-{4-[(4,4,4-trifluorobutanoyl)oxy]phenyl}but-1-enyl)phenyl]prop-2-enoic acid] | 28.9 |  |  |
| CC/C(=C(\c1ccc(/C=C/C(=O)O)cc1)c1ccc(OC(=O)CCC(F)(F)F)cc1)c1ccccc1 (as salt: salt) [Compound 27, (2E)-3-[4-((1Z)-2-phenyl-1-{4-[(4,4,4-trifluorobutanoyl)oxy]phenyl}but-1-enyl)phenyl]prop-2-enoic acid] |  | 162 to 163 °C |  |
